From ChEMBL document CHEMBL1201862, “PubChem BioAssay data set” (2004)
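Step 1: Grow cells in 96-well plates. Step 2: Expose to compound for 48 hours at 5 concentrations. Step 3: Interpolate endpoints linearly; if unreached, use highest concentration. At the GI50, growth is halved.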 Active and inactive are the calls of the source. No stated cut-off is given here; in the data, active = GI50 up to about 1.1 µM and inactive = higher.

Assays:
Assay in all cases: inhibition of tumour cell growth, NCI panel, 48 h
A549 = system: A549
CAKI-1 = system: CAKI-1
COLO 205 = system: COLO 205
EKVX = system: EKVX
HCC 2998 = system: HCC 2998
HL-60 = system: HL-60
HOP-62 = system: HOP-62
HT-29 = system: HT-29
IGROV-1 = system: IGROV-1
MOLT-4 = system: MOLT-4
NCI-H23 = system: NCI-H23
NCI-H460 = system: NCI-H460
OVCAR-5 = system: OVCAR-5
SF-268 = system: SF-268
SF-295 = system: SF-295
SF-539 = system: SF-539
SK-MEL-2 = system: SK-MEL-2
SNB-19 = system: SNB-19
U-251 = system: U-251

| SMILES | GI50 (A549) | GI50 (CAKI-1) | GI50 (COLO 205) | GI50 (EKVX) | GI50 (HCC 2998) | GI50 (HL-60) | GI50 (HOP-62) | GI50 (HT-29) | GI50 (IGROV-1) | GI50 (MOLT-4) | GI50 (NCI-H23) | GI50 (NCI-H460) | GI50 (OVCAR-5) | GI50 (SF-268) | GI50 (SF-295) | GI50 (SF-539) | GI50 (SK-MEL-2) | GI50 (SNB-19) | GI50 (U-251) |
| --- | --- | --- | --- | --- | --- | --- | --- | --- | --- | --- | --- | --- | --- | --- | --- | --- | --- | --- | --- |
| N#Cc1ccccc1C(Cl)(Cl)c1cnccn1 | 83.9 µM (inactive) | > 100 µM (inactive) | 46.9 µM (inactive) | 40 µM (inactive) | 32.4 µM (inactive) | 28.6 µM (inactive) | 72.4 µM (inactive) | 57.4 µM (inactive) | 44.1 µM (inactive) | 22.6 µM (inactive) | 38.5 µM (inactive) | 47.4 µM (inactive) | > 100 µM (inactive) | 52.5 µM (inactive) | 47 µM (inactive) | 32.4 µM (inactive) | 67 µM (inactive) | 56.5 µM (inactive) | 34.8 µM (inactive) |
| COc1ccc2c(c1)O[C@H]1c3ccc(O)cc3OC[C@@H]21 | 28.6 µM (inactive) | 24.1 µM (inactive) | 24.1 µM (inactive) | 34 µM (inactive) | 22.9 µM (inactive) | 18.1 µM (inactive) | 45.5 µM (inactive) | 34.4 µM (inactive) | 17.5 µM (inactive) | 19.8 µM (inactive) | 26 µM (inactive) | 35.1 µM (inactive) | 48.6 µM (inactive) | 28.1 µM (inactive) | 35.2 µM (inactive) | 20.7 µM (inactive) | 26.5 µM (inactive) | 68.1 µM (inactive) | 27.9 µM (inactive) |
| CC(=O)OC(C)C(=O)C1c2cccc(O)c2C(=O)c2c(O)cc(C)cc21 (stereo not drawn) | 0.322 µM (active) | 1.71 µM (inactive) | 1.65 µM (inactive) | 1.36 µM (inactive) | 0.429 µM (active) | 0.308 µM (active) | 0.343 µM (active) | 1.66 µM (inactive) | 0.478 µM (active) | 3.06 µM (inactive) | 0.324 µM (active) | 0.375 µM (active) | 1.31 µM (inactive) | 0.381 µM (active) | 0.344 µM (active) | 0.254 µM (active) | 0.429 µM (active) | 0.344 µM (active) | 0.26 µM (active) |
| COc1cccc(/C=C/C(=O)c2sc(C(N)=S)nc2C)c1O | > 100 µM (inactive) | > 100 µM (inactive) | > 68.2 µM (inactive) | > 100 µM (inactive) | 75.5 µM (inactive) | 22.2 µM (inactive) | > 100 µM (inactive) | > 100 µM (inactive) | > 61.5 µM (inactive) | 25.1 µM (inactive) | 68.1 µM (inactive) | > 76.4 µM (inactive) | > 100 µM (inactive) | > 86.3 µM (inactive) | > 94.6 µM (inactive) | 52.7 µM (inactive) | > 100 µM (inactive) | > 100 µM (inactive) | 28.8 µM (inactive) |
| COc1cc(/C=C2/C(=O)NC(Cc3cc(OC)c(OC)c(C)c3OC)C(=O)N2Cc2ccccc2)c(OC)c(C)c1OC (stereo not drawn) | > 100 µM (inactive) | 39.6 µM (inactive) | 17.7 µM (inactive) | 38.9 µM (inactive) | 55.1 µM (inactive) | 24.4 µM (inactive) | > 100 µM (inactive) | 79.8 µM (inactive) | 61.9 µM (inactive) | 23 µM (inactive) | 79.8 µM (inactive) | 38.1 µM (inactive) | 93.8 µM (inactive) | 69.5 µM (inactive) | 50.5 µM (inactive) | 75 µM (inactive) | 30.2 µM (inactive) | 81.3 µM (inactive) | 48.2 µM (inactive) |
| CC(SC1=CC(=O)c2c(O)ccc(O)c2C1=O)C(=O)O (stereo not drawn) | 97.3 µM (inactive) | 27.4 µM (inactive) | 22.5 µM (inactive) | > 100 µM (inactive) | > 73.8 µM (inactive) | 13.6 µM (inactive) | > 100 µM (inactive) | 41.7 µM (inactive) | > 44.9 µM (inactive) | 7.48 µM (inactive) | > 56.4 µM (inactive) | > 100 µM (inactive) | > 100 µM (inactive) | 48 µM (inactive) | > 100 µM (inactive) | > 68.5 µM (inactive) | > 100 µM (inactive) | > 100 µM (inactive) | > 42.1 µM (inactive) |
| CC1=NN(c2ccccc2)C(=O)C12[C@H](c1ccccc1)C2(C#N)C#N (stereo partly drawn) | 16.3 µM (inactive) | 6.41 µM (inactive) | 2.29 µM (inactive) | 18.3 µM (inactive) | 18.5 µM (inactive) | 2.55 µM (inactive) | 17.3 µM (inactive) | 4.59 µM (inactive) | 14.2 µM (inactive) | 0.679 µM (active) | 2.85 µM (inactive) | 17.5 µM (inactive) | 11.5 µM (inactive) | 7.26 µM (inactive) | 12.9 µM (inactive) | 14.6 µM (inactive) | 6.43 µM (inactive) | 15.8 µM (inactive) | 15.4 µM (inactive) |
